From ChEMBL document CHEMBL1909046, “DrugMatrix in vitro pharmacology data” come the findings set out here.

For experiment [1], the target named is T1, 5-hydroxytryptamine receptor 2C (Homo sapiens, UniProt P28335).
T1 sequence (P28335 whole entry): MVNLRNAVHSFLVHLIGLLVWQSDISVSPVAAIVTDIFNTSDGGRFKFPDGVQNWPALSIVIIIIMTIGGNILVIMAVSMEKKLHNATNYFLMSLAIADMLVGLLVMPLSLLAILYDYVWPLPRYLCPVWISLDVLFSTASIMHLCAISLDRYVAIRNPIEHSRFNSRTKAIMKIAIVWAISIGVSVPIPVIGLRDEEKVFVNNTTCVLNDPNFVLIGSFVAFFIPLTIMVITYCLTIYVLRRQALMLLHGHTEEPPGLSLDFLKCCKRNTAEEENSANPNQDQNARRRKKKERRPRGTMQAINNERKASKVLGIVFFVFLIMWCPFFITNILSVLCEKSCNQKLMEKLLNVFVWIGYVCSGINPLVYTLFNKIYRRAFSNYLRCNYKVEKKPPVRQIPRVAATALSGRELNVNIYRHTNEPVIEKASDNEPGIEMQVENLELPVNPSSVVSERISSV
The experiment in a line: DRUGMATRIX: Serotonin (5-Hydroxytryptamine) 5-HT2C radioligand binding (ligand: [3H] Mesulergine). Format: cell membranes, CHO-K1, Membrane. Particulars: cho-k1; Not Active = under 50% inhibition at 10 µM.

A short description of experiment [2]: DRUGMATRIX: GABAA, Flunitrazepam, Central radioligand binding (ligand: [3H] Flunitrazepam). Format: cell membranes, Rattus norvegicus, Wistar, Brain, Membrane. Particulars: Not Active = under 50% inhibition at 10 µM.
Experiment [3] concerns the target T2, Muscarinic acetylcholine receptor M5 (Homo sapiens, UniProt P08912). Also: in other assays of this panel Not Active means under 50% inhibition at 10 µM.
T2 sequence (P08912 whole entry): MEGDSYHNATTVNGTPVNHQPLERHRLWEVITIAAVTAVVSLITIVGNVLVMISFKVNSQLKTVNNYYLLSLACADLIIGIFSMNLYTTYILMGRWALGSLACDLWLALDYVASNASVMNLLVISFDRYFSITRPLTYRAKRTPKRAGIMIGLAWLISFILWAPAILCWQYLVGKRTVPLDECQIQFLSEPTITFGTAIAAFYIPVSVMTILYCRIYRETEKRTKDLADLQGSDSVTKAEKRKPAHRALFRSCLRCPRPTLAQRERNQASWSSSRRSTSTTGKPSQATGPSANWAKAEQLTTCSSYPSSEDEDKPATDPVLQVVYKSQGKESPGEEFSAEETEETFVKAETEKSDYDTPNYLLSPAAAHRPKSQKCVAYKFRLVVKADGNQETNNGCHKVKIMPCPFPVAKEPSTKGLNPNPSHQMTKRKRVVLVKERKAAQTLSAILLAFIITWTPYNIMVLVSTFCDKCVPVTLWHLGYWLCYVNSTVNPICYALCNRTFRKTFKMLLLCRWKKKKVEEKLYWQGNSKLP
The experiment is classed as cell membranes, CHO-K1, Membrane. As to conditions: cho-k1.

Experiment [4] deals with T3, Adenosine receptor A3 (Homo sapiens, UniProt P0DMS8).
T3 sequence (P0DMS8 whole entry): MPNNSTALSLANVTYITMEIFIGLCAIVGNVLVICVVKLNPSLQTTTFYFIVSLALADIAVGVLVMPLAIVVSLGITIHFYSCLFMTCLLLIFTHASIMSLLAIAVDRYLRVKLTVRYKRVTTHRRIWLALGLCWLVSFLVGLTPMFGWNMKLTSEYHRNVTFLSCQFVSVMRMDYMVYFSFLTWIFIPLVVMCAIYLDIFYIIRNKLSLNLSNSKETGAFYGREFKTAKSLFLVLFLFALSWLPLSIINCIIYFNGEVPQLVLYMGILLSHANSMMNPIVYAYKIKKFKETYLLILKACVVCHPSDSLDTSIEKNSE
The experiment is classed as cell membranes, CHO-K1, Membrane.

As for `O=C(c1ccccc1C(F)(F)F)N1CCC(Cc2ccccc2)CC1`, the IC50 entry in experiment [1], in experiment [2], in experiment [3] and in experiment [4] (cho-k1) was “Not Active” throughout. Further, in experiment [2], the Ki – broadly, a measure of affinity in units of concentration, obtained from inhibition or displacement – is given as “Not Active”.

For `O=C/C=C/c1ccccc1`, the IC50 result in experiment [1], in experiment [2], in experiment [3] and in experiment [4] (cho-k1) was “Not Active” in each case. Moreover, in experiment [2], the Ki entry is “Not Active”.

For the compound `Nc1ccc2c3c(cccc13)C(=O)NC2=O`, the IC50 result in experiment [1], in experiment [2], in experiment [3] and in experiment [4] (cho-k1) was “Not Active” in each case. In addition, in experiment [2], the Ki entry is “Not Active”.

On to `COc1ccc(C(=O)N2CCCC2=O)cc1`, for which the concentration for half-maximal inhibition (IC50) result in experiment [1], in experiment [2], in experiment [3] and in experiment [4] (cho-k1) was “Not Active” throughout. Moreover, the Ki result in experiment [2] was “Not Active”.

As to `O=c1cnn([C@@H]2O[C@H](CO)[C@@H](O)[C@H]2O)c(=O)[nH]1` [6-AZAURIDINE], the IC50 entry in experiment [1], in experiment [2], in experiment [3] and in experiment [4] (cho-k1) was “Not Active” in each case. Besides, in experiment [2], the inhibition constant Ki result is listed as “Not Active”.

In the case of `CC[C@H](C)[C@H]1O[C@]2(C=C[C@@H]1C)C[C@@H]1C[C@@H](C/C=C(\C)[C@@H](O[C@H]3C[C@H](OC)[C@@H](O[C@H]4C[C@H](OC)[C@@H](O)[C@H](C)O4)[C@H](C)O3)[C@@H](C)/C=C/C=C3\CO[C@@H]4[C@H](O)C(C)=C[C@@H](C(=O)O1)[C@]34O)O2.CO[C@H]1C[C@H](O[C@H]2[C@H](C)O[C@@H](O[C@@H]3/C(C)=C/C[C@@H]4C[C@@H](C[C@]5(C=C[C@H](C)[C@@H](C(C)C)O5)O4)OC(=O)[C@@H]4C=C(C)[C@@H](O)[C@H]5OC/C(=C\C=C\[C@@H]3C)[C@]54O)C[C@@H]2OC)O[C@@H](C)[C@@H]1O` [ABAMECTIN], the half-inhibitory concentration (IC50) (as a rule, the concentration at which inhibition is half-maximal) in experiment [1] is “Not Active”; in experiment [2], “Not Active”; in experiment [3] it was “Not Active”; in experiment [4] (read-out: IC50), 870 nM. The Ki result is “Not Active” in experiment [2] and 492 nM in experiment [4] (read-out: Ki).

For the compound `NCCCC(O)(P(=O)(O)O)P(=O)(O)O` [ALENDRONIC ACID], the IC50 entry in experiment [1], in experiment [2], in experiment [3] and in experiment [4] (cho-k1) was “Not Active” throughout. Also, the Ki result in experiment [2] was “Not Active”.

For the compound `Cc1nnc2n1-c1ccc(Cl)cc1C(c1ccccc1)=NC2` [ALPRAZOLAM], the IC50 result in experiment [1] was “Not Active”; in experiment [2] (read-out: IC50), 16.6 nM; in experiment [3] it was “Not Active”; in experiment [4] (cho-k1), “Not Active”. The Ki in experiment [2] (read-out: Ki) turned out to be 13.5 nM.

Take `Cn1c(=O)c2[nH]cnc2n(C)c1=O.Cn1c(=O)c2[nH]cnc2n(C)c1=O.NCCN` [AMINOPHYLLINE]: the IC50 entry in experiment [1], in experiment [2], in experiment [3] and in experiment [4] (cho-k1) was “Not Active” in each case. The Ki entry in experiment [2] is “Not Active”.

`CCC1(CCC(C)C)C(=O)NC(=O)NC1=O` [AMOBARBITAL]: the IC50 result in experiment [1], in experiment [2], in experiment [3] and in experiment [4] (cho-k1) was “Not Active” each time. In addition, the Ki result in experiment [2] was “Not Active”.

In the case of `CC1(C)S[C@@H]2[C@H](NC(=O)[C@H](N)c3ccccc3)C(=O)N2[C@H]1C(=O)O` [AMPICILLIN], the IC50 result in experiment [1], in experiment [2], in experiment [3] and in experiment [4] (cho-k1) was “Not Active” in each case. In experiment [2], the inhibition constant Ki result is listed as “Not Active”.

For the compound `COc1ccc(C2C(=O)c3ccccc3C2=O)cc1` [ANISINDIONE], the concentration for half-maximal inhibition (IC50) entry in experiment [1], in experiment [2], in experiment [3] and in experiment [4] (cho-k1) was “Not Active” each time. For the same compound, the Ki result in experiment [2] is recorded as “Not Active”.

In the case of `O=C1O[C@H]([C@@H](O)CO)C(O)=C1O` [ASCORBIC ACID], the IC50 result in experiment [1], in experiment [2], in experiment [3] and in experiment [4] (cho-k1) was “Not Active” throughout. In addition, the Ki result in experiment [2] is on record as “Not Active”.

As to `CN1[C@@H]2CC[C@H]1C[C@@H](OC(=O)C(CO)c1ccccc1)C2` (some centres not stated) [ATROPINE], the half-maximal inhibitory concentration (IC50) result in experiment [2] and in experiment [4] (cho-k1) was “Not Active” in each case. For the same compound, the inhibition constant Ki result in experiment [2] is “Not Active”.

As to `CC(C(=O)O)c1ccc2oc(-c3ccc(Cl)cc3)nc2c1` (configuration not stated) [BENOXAPROFEN], the half-maximal inhibitory concentration (IC50) entry in experiment [1], in experiment [2], in experiment [3] and in experiment [4] (cho-k1) was “Not Active” throughout. Also, the Ki entry in experiment [2] is listed as “Not Active”.

With `COc1ccc2cc3[n+](cc2c1OC)CCc1cc2c(cc1-3)OCO2.[Cl-]` [BERBERINE CHLORIDE], the IC50 result in experiment [1], in experiment [2], in experiment [3] and in experiment [4] (cho-k1) was “Not Active” each time. Further, the Ki result in experiment [2] is “Not Active”.

As for `O=C(O)CCNC(=O)c1ccccc1` [BETAMIPRON], the concentration for half-maximal inhibition (IC50) result in experiment [1], in experiment [2], in experiment [3] and in experiment [4] (cho-k1) was “Not Active” throughout. Besides, the Ki result in experiment [2] is reported as “Not Active”.

As to `CC(=O)Oc1ccc(C(c2ccc(OC(C)=O)cc2)c2ccccn2)cc1` [BISACODYL], the half-inhibitory concentration (IC50) entry in experiment [1], in experiment [2], in experiment [3] and in experiment [4] (cho-k1) was “Not Active” in each case. For the same compound, the Ki result in experiment [2] is on record as “Not Active”.

`Cc1cc2c(OCC(CNC(C)(C)C)OC(=O)c3ccccc3)cccc2[nH]1` (configuration not stated) [BOPINDOLOL]: the IC50 result in experiment [1], in experiment [2], in experiment [3] and in experiment [4] (cho-k1) was “Not Active” throughout. Moreover, the Ki result in experiment [2] is on record as “Not Active”.

As to `Brc1c(NC2=NCCN2)ccc2nccnc12` [BRIMONIDINE], the IC50 entry in experiment [1], in experiment [2], in experiment [3] and in experiment [4] (cho-k1) was “Not Active” throughout. Moreover, the Ki result in experiment [2] was “Not Active”.

Consider `CN(C)[C@@H]1C(O)=C(C(N)=O)C(=O)[C@@]2(O)C(O)=C3C(=O)c4c(O)ccc(Cl)c4[C@@](C)(O)[C@H]3C[C@@H]12` [CHLORTETRACYCLINE], for which the IC50 result in experiment [1], in experiment [2], in experiment [3] and in experiment [4] (cho-k1) was “Not Active” throughout. Also, in experiment [2], the Ki entry is listed as “Not Active”.

Consider `CN/C(=N\CCSCc1nc[nH]c1C)NC#N` [CIMETIDINE], for which the half-inhibitory concentration (IC50) entry in experiment [1], in experiment [2], in experiment [3] and in experiment [4] (cho-k1) was “Not Active” each time. Further, the inhibitory constant (Ki) result in experiment [2] is reported as “Not Active”.

In the case of `COc1cc(N)c(Cl)cc1C(=O)NC1CCN(CCCOc2ccc(F)cc2)CC1OC` (configuration not stated) [CISAPRIDE], the concentration for half-maximal inhibition (IC50) result in experiment [2], in experiment [3] and in experiment [4] (cho-k1) was “Not Active” each time. In experiment [2], the inhibition constant Ki result is on record as “Not Active”.

With `CCC(=O)O[C@]1(C(=O)CCl)[C@@H](C)C[C@H]2[C@@H]3CCC4=CC(=O)C=C[C@]4(C)[C@@]3(F)[C@@H](O)C[C@@]21C` [CLOBETASOL PROPIONATE], the concentration for half-maximal inhibition (IC50) entry in experiment [1], in experiment [2], in experiment [3] and in experiment [4] (cho-k1) was “Not Active” throughout. Also, the Ki entry in experiment [2] is on record as “Not Active”.

For the compound `O=C1CN=C(c2ccccc2Cl)c2cc([N+](=O)[O-])ccc2N1` [CLONAZEPAM], the half-maximal inhibitory concentration (IC50) entry in experiment [1] is “Not Active”; in experiment [2] (read-out: IC50) it was 4.93 nM; in experiment [3] it was “Not Active”; in experiment [4] (cho-k1), “Not Active”. Besides, the Ki in experiment [2] (read-out: Ki) worked out at 4.02 nM.

Take `Nc1ccn([C@@H]2O[C@H](CO)[C@@H](O)[C@@H]2O)c(=O)n1` [CYTARABINE]: the IC50 result in experiment [1], in experiment [2], in experiment [3] and in experiment [4] (cho-k1) was “Not Active” throughout. Also, the Ki entry in experiment [2] is “Not Active”.

As for `CCCNCC(O)COc1ccccc1C(=O)CCc1ccccc1` (configuration not stated) [PROPAFENONE], the IC50 result in experiment [2], in experiment [3] and in experiment [4] (cho-k1) was “Not Active” each time. The inhibitory constant (Ki) result in experiment [2] is on record as “Not Active”.
